pIC50: −log10 of the molar value. Where two headings read alike, the source gives them in different places.
Tests used:
[1] = biological target: recombinant human Myt1 (full length PKMYT1) (Homo sapiens (Human), UniProt Q99640); experiment: Recombinant human Myt1 kinase assay (ADP-Glo); type: biochemical; conditions: 10 μM ATP
How it was run: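 ADP-Glo luminescence measured ATP hydrolysis by recombinant full-length PKMYT1 (18 nM) after 60 min at 30 °C with 10 μM ATP. Compounds in 0.5% DMSO were added to the enzyme 15 min before ATP, at 22 °C, in HEPES/MgCl2/MnCl2 buffer. IC50 and percent maximal inhibition were derived.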

[2] = test system: PKMYT1 (CDK1 pThr14) in FUOV1 cells; experiment: PKMYT1 cell-based activity assay, CDK1 pThr14 AlphaLISA in FUOV1 cells; conditions: 2 h, read-out: FUOV-1 CDK1 pThr14 IC50
How it was run: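 IC50 was derived from AlphaLISA signal (excitation 680 nm, emission 615 nm) for phospho-Thr14 CDK1 in lysates. The detection antibodies were rabbit anti-pThr14 and mouse anti-total CDK1, each at 5 nM. FUOV1 ovarian cells were exposed to compound for 2 hours before lysis.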

Chain of recombinant human Myt1 (full length PKMYT1) (Q99640 whole entry): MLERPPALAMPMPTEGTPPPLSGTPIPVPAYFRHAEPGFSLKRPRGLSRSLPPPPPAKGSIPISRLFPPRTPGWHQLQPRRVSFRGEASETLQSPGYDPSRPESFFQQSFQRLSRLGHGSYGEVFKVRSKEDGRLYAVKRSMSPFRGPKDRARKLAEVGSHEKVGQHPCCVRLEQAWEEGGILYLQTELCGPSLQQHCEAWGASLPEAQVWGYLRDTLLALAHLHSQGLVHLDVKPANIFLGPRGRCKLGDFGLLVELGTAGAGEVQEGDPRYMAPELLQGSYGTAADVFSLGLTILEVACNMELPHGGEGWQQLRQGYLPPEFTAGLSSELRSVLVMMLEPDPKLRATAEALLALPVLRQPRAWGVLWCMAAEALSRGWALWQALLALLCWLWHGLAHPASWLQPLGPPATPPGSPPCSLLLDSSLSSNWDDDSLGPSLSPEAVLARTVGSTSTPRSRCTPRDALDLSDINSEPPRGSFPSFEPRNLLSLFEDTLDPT

Cc1nccc(Nc2cc(C#N)ccc2-c2nc(C(N)=O)c(N)c(-c3c(C)ccc4[nH]ncc34)n2)n1 [Compound 766]
pIC50 [1]: 8.52 | pIC50 ([2]; 2 h compound incubation): 7.39

Cc1ccc2[nH]ncc2c1-c1nc(-c2ccccc2Nc2ccc(F)cn2)nc(C(N)=O)c1N [Compound 450]
pIC50 [1]: 8.10 | pIC50 ([2]; 2 h compound incubation): 6.92

CNc1ccccc1-c1nc(C(N)=O)c(N)c(-c2c(C)ccc3[nH]ncc23)n1 [Compound 365]
pIC50 [1]: 7.55 | pIC50 ([2]; 2 h incubation): 6.11

Cc1ccc(O)c(C)c1-c1cc(-c2ccco2)nc(C(N)=O)c1N [Compound 50]
pIC50 [1]: 8.22 | pIC50 ([2]; 2 h incubation): 6.43

Cc1ccc2[nH]ncc2c1-c1cc(-c2cccc(OCC3COC3)n2)nc(C(N)=O)c1N [Compound 268]
pIC50 [1]: 8.05 | pIC50 ([2]; 2 h incubation): 6.58

Cc1ccc(O)cc1-c1nc(-c2cccc(N3CCOCC3)c2)nc(C(N)=O)c1N [Compound 27]
pIC50 [1]: 7.96 | pIC50 ([2]; 2 h incubation): 6.50

Cc1ccc2[nH]ncc2c1-c1nc(-c2ccc(C(=O)O)cc2)nc(C(N)=O)c1N [Compound 146]
pIC50 [1]: 7.64 | pIC50 ([2]; 2 h incubation): < 5.00

Cc1ccc2[nH]ncc2c1-c1nc(-c2ccccc2Nc2ncccn2)nc(C(N)=O)c1N [Compound 449, 5-amino-6-(5-methyl-1H-indazol-4-yl)-2-(2-(pyrimidin-2-ylamino)phenyl)pyrimidine-4-carboxamide]
pIC50 [1]: 8.15 | pIC50 ([2]; 2 h compound incubation): 7.64

Cc1ccc(O)c(C)c1-c1cc(-c2nccc3ccccc23)nc(C(N)=O)c1N [Compound 48]
pIC50 [1]: 7.26 | pIC50 ([2]; 2 h incubation): 5.11

Cc1ccc(O)c(C)c1-c1cc(C(=O)Nc2cccnc2)nc(C(N)=O)c1N [Compound 188, 5-amino-4-(3-hydroxy-2,6-dimethylphenyl)-N2-(pyridin-3-yl)pyridine-2,6-dicarboxamide]
pIC50 [1]: 8.10 | pIC50 ([2]; 2 h incubation): 6.58

Cc1ccc(O)c(C)c1-c1cc(-c2ccccn2)nc(C(N)=O)c1N [Compound 19]
pIC50 [1]: 8.40 | pIC50 ([2]; 2 h incubation): 7.85

Cc1ccc2[nH]ncc2c1-c1nc(-c2ccccc2NC(=O)C23CC(F)(C2)C3)nc(C(N)=O)c1N [Compound 448]
pIC50 [1]: 8.15 | pIC50 ([2]; 2 h compound incubation): 6.95

Cc1ccc2[nH]ncc2c1-c1nc(-c2ccccc2NC(=O)C2(C#N)CC2)nc(C(N)=O)c1N [Compound 423]
pIC50 [1]: 8.40 | pIC50 ([2]; 2 h compound incubation): 7.64

Cc1ccc2[nH]ncc2c1-c1nc(-c2cccnc2Nc2ncccc2F)nc(C(N)=O)c1N [Compound 621]
pIC50 [1]: 8.52 | pIC50 ([2]; 2 h compound incubation): 8.52

Cc1ccc2[nH]ncc2c1-c1nc(-c2cccc3c2NC(=O)C3)nc(C(N)=O)c1N [Compound 385]
pIC50 [1]: 8.30 | pIC50 ([2]; 2 h incubation): 6.54

NC(=O)c1nc(-c2ccccc2)nc(-c2cccc3[nH]nc(F)c23)c1N [Compound 123]
pIC50 [1]: 7.00 | pIC50 ([2]; 2 h incubation): < 5.00

Cc1ccc2[nH]ncc2c1-c1cc(-c2cccc(OCc3cncnc3)n2)nc(C(N)=O)c1N [Compound 262]
pIC50 [1]: 8.15 | pIC50 ([2]; 2 h incubation): 6.29

Cc1ccc2[nH]ncc2c1-c1nc(-c2ccccc2NC(=O)C2(C)CC(F)(F)C2)nc(C(N)=O)c1N [Compound 462]
pIC50 [1]: 8.40 | pIC50 ([2]; 2 h compound incubation): 6.86

Cc1ccc2[nH]ncc2c1-c1nc(-c2ccns2)nc(C(N)=O)c1N [Compound 109]
pIC50 [1]: 7.64 | pIC50 ([2]; 2 h incubation): 6.14

Cc1ccc2[nH]ncc2c1-c1nc(-c2ccc(F)cc2Nc2cc(C3CC3)ncn2)nc(C(N)=O)c1N [Compound 615]
pIC50 [1]: 7.80 | pIC50 ([2]; 2 h compound incubation): 6.29

Cc1cccnc1Nc1ncccc1-c1nc(C(N)=O)c(N)c(-c2c(C)ccc3[nH]ncc23)n1 [Compound 622]
pIC50 [1]: 8.40 | pIC50 ([2]; 2 h compound incubation): 8.00

Cc1ccc2[nH]ncc2c1-c1nc(-c2cccnc2NC2(C)CC(C)(O)C2)nc(C(N)=O)c1N (stereo not shown) [Compound 901]
pIC50 [1]: > 8.52 | pIC50 ([2]; 2 hours with compound): 7.57

Cc1ccc(O)c(C)c1-c1cc(-c2ccnnc2)cc(C(N)=O)c1N [Compound 93]
pIC50 [1]: 7.60 | pIC50 ([2]; 2 h incubation): 6.03
